# Results: patent US20240101599A1, “PEPTIDE, CELL GROWTH PROMOTER, PROTEIN PRODUCTION PROMOTER, CULTURE MEDIUM, CELL GROWTH METHOD USING PEPTIDE, AND PROTEIN PRODUCTION METHOD USING PEPTIDE” (Maruhachi Muramatsu, Inc., priority 2020, published 2024)
# Peptide text beside a SMILES is read from it.
# Legend:
# CHO-K1 [1] = assay: Relationship between number of days of cell growth of each peptide and cell number (absorbance); assay type: cell-based; settings: 1.1 mM GPP, 2.2 mM DGP, 2.1 mM GEK, 2.0 mM AGK, MEMα without FBS
# Method: Peptides having the sequences of Gly-Pro-Pro (GPP), Asp-Gly-Pro (DGP), Gly-Glu-Lys (GEK), and Ala-Gly-Lys (AGK) were synthesized to prepare each peptide solution such that the concentration was a concentration at which the cell number increased the most within a range of 0 mM to 5 mM. In other words, Gly-Pro-Pro (GPP) was adjusted to 11 mM, Asp-Gly-Pro (DGP) was adjusted to 22 mM, Gly-Glu-Lys (GEK) was adjusted to 21 mM, and Ala-Gly-Lys (AGK) was adjusted to 20 mM, and an amount of 1/10 of the total culture medium volume was added to each well immediately before the cell culture test such that final concentrations were 1.1 mM, 2.2 mM, 2.1 mM, and 2.0 mM, respectively.
# A cell suspension prepared such that CHO-K1 (RIKEN BioResource Research Center, cell number: RCB2330) was at 3×10^4 cells/mL was seeded in a 96-well plate at 100 μL/well and cultured in an incubator at 37° C. and 5% CO2 for 24 hours. As a culture medium, an MEMα culture medium (Gibco) containing 10% FBS was used.
# (§1) After removing the culture medium from each well and washing with the MEMα culture medium (100 μL), 90 μL of a new MEMα culture medium was dispensed into each well, and each peptide solution (10 μL) was added (total 100 μL/well) to perform culture for 0 to 5 days. Every day, 10 μL/well of a viable cell count measurement reagent SF (Nacalai Tesque Inc.) was added, and a color reaction was carried out in an incubator at 37° C. and 5% CO2 for 2 hours to measure an absorbance at 450 nm with a plate reader. A reference wavelength was 630 nm. It was confirmed that the absorbance at 450 nm correlated with the cell number. A similar culture test was performed using a system containing neither peptide nor FBS as a comparative sample.
# The above preparation, culture, and measurement were performed with n=3, and Table 12 and FIG. 12 show the absorbance and the standard deviation of each peptide solution for each day.
# CHO-K1 [2] = assay: Relationship between concentration of each peptide solution and viable cell count (absorbance); assay type: cell-based; settings: for Absorbance (450 nm): 5 days, MEMα without FBS, n = 3 average, 0 mM = 0.0000; for cell growth promotion, order of the peptides: in words, promoted in the order GEK, DGP, AGK, GPP, GGP, AEK, AGG, ASN, EGK (strongest first)
# Method: Peptides having the sequences of Gly-Glu-Lys (GEK), Asp-Gly-Pro (DGP), Ala-Gly-Lys (AGK), Gly-Pro-Pro (GPP), Gly-Gly-Pro (GGP), Ala-Glu-Lys (AEK), Ala-Gly-Gly (AGG), Ala-Ser-Asn (ASN), and Glu-Gly-Lys (EGK), and Gly-Gly-Gly (GGG) are synthesized to prepare each of peptide solutions at 10-fold concentrations shown in Tables 1 to 10.
# A cell suspension prepared such that CHO-K1 (RI KEN BioResource Research Center, cell number: RCB2330) was at 3×10^4 cells/mL was seeded in a 96-well plate at 100 μL/well and cultured in an incubator at 37° C. and 5% CO2 for 24 hours. As a culture medium, an MEMα culture medium (Gibco) containing 10% FBS was used.
# as §1, with “new MEMa” for “new MEMα”, “μL/well) such that final concentrations were within a range of 0 mM to 5 mM as shown in Tables 1 to 10” for “μL/well)”, “for” for “for 0 to”, “days. A similar culture test was performed using a system containing neither peptide nor FBS as a comparative sample. After culturing for 5 days,” for “days. Every day,”, “number.” for “number. A similar culture test was performed using a system containing neither peptide nor FBS as a comparative sample.”
# The above preparation, culture, and measurement were performed with n=3, and Tables 1 to 10 and FIGS. 1 to 10 show the absorbance at the concentration of each peptide solution.
Compound,OD450 (average value n = 3) (CHO-K1 [1]; Day 0),OD450 (average value n = 3) (CHO-K1 [1]; Day 1),OD450 (average value n = 3) (CHO-K1 [1]; Day 2),OD450 (average value n = 3) (CHO-K1 [1]; Day 3),OD450 (average value n = 3) (CHO-K1 [1]; Day 4),OD450 (average value n = 3) (CHO-K1 [1]; Day 5),"cell growth promotion, order of the peptides (CHO-K1 [2])",also measured
"C[C@H](N)C(=O)NCC(=O)N[C@@H](CCCCN)C(=O)O [AGK, Ala-Gly-Lys] (H-Ala-Gly-Lys-OH; N-terminus and C-terminus assumed)",0.1757,0.4577,0.7440,0.7997,1.0263,1.0620,cell growth was promoted,Absorbance (450 nm) (CHO-K1 [2]; 0.123 mM peptide): 0.0180; Absorbance (450 nm) (CHO-K1 [2]; 0.247 mM peptide): 0.1440; Absorbance (450 nm) (CHO-K1 [2]; 0.494 mM peptide): 0.3360; Absorbance (450 nm) (CHO-K1 [2]; 0.99 mM peptide): 0.5380; Absorbance (450 nm) (CHO-K1 [2]; 1.97 mM peptide): 0.6613; Absorbance (450 nm) (CHO-K1 [2]; 3.95 mM peptide): 0.4693
"NCCCC[C@H](NC(=O)[C@H](CCC(=O)O)NC(=O)CN)C(=O)O [GEK, Gly-Glu-Lys] (H-Gly-Glu-Lys-OH; N-terminus and C-terminus assumed)",0.1613,0.4280,0.6043,0.7300,0.9023,0.9107,cell growth was promoted,Absorbance (450 nm) (CHO-K1 [2]; 0.128 mM peptide): −0.0903; Absorbance (450 nm) (CHO-K1 [2]; 0.257 mM peptide): 0.0657; Absorbance (450 nm) (CHO-K1 [2]; 0.512 mM peptide): 0.3020; Absorbance (450 nm) (CHO-K1 [2]; 1.02 mM peptide): 0.6377; Absorbance (450 nm) (CHO-K1 [2]; 2.05 mM peptide): 1.0050; Absorbance (450 nm) (CHO-K1 [2]; 4.10 mM peptide): 0.5757
Asp-Gly-Pro [DGP],0.1607,0.4507,0.6840,0.7700,0.9313,0.9363,cell growth was promoted,Absorbance (450 nm) (CHO-K1 [2]; 0.138 mM peptide): 0.0957; Absorbance (450 nm) (CHO-K1 [2]; 0.278 mM peptide): 0.2464; Absorbance (450 nm) (CHO-K1 [2]; 0.555 mM peptide): 0.4127; Absorbance (450 nm) (CHO-K1 [2]; 1.11 mM peptide): 0.5617; Absorbance (450 nm) (CHO-K1 [2]; 2.22 mM peptide): 0.7657; Absorbance (450 nm) (CHO-K1 [2]; 4.44 mM peptide): 0.4004
Gly-Pro-Pro [GPP],0.2023,0.5267,0.7083,0.8350,1.0227,0.9003,cell growth was promoted,Absorbance (450 nm) (CHO-K1 [2]; 0.137 mM peptide): 0.1163; Absorbance (450 nm) (CHO-K1 [2]; 0.276 mM peptide): 0.2303; Absorbance (450 nm) (CHO-K1 [2]; 0.550 mM peptide): 0.4117; Absorbance (450 nm) (CHO-K1 [2]; 1.10 mM peptide): 0.6443; Absorbance (450 nm) (CHO-K1 [2]; 2.20 mM peptide): 0.5700; Absorbance (450 nm) (CHO-K1 [2]; 4.40 mM peptide): 0.3620
